Patent publication US20230190697A1, “METHODS FOR TREATING VIRAL INFECTIONS WITH NAFAMOSTAT” (priority 2020, published 2023)
Values joined by “and” are separate entries in the source; they are usually repeats but may differ in a detail not shown here. Identical values can stand only once. “Also recorded” adds a separate entry of the source. Like-named read-outs stand apart in the source and are kept apart here.

Experiments:
[1] = system: healthy male and female subjects; experiment: Safety and tolerability (adverse events) of oral nafamostat mesylate in healthy subjects; format: in vivo, human
Procedure: (§1) Part 1: Single Ascending Dose Study. Male and female subjects aged 18 - 70 were administered a single dose of 50 mg nafamostat mesylate on day 1, 100 mg nafamostat mesylate on day 3 or 4, and 200 mg nafamostat mesylate on day 5, 6, or 7. Nafamostat mesylate was administered in the form of an oral solution. Blood samples were obtained at pre-dose (0 hr.) and at 0.5, 1, 2, 3, 4, 6, 8, 12, and 24 hours after receiving the nafamostat mesylate oral solution.
Part 2: Multiple Ascending Dose Study. Subjects were divided into 2 cohorts. Cohort 1 received an oral solution of 100 mg/mL nafamostat mesylate twice a day for 5 days with pharmacokinetic evaluations on each day. Blood samples were obtained at pre-dose (0 hr.) and at 0.5, 1, 2, 3, 4, 6, 8, 12, and 24 hours after receiving the nafamostat mesylate oral solution as well as after the first dose on Day 5. Safety evaluations continued for 48 hours after the last dose. After review and evidence of safety, Cohort 2 received an oral solution of 200 mg/mL nafamostat mesylate twice a day for 5 days with pharmacokinetic evaluations on each day. Blood samples were obtained at pre-dose (0 hr.) and at 0.5, 1, 2, 3, 4, 6, 8, 12, and 24 hours after receiving the first dose of nafamostat mesylate oral solution as well as after the first dose on Day 5. Safety evaluations continued for 48 hours after the last dose.
(§2) Part 3: Single Fixed Dose Administered Twice Daily for 5 Days. Six subjects, different than the subjects from Parts 1 and 2, received an oral solution of 200 mg/mL nafamostat mesylate twice a day for 5 days. Blood samples were obtained at pre-dose (0 hr.) and at 0.5, 1, 2, 3, 4, 6, and 8 hours after the first dose on Day 1 and again after the first dose on Day 5.
Part 4: Single Ascending Dose Study. Three subjects were administered a single dose of an oral solution of 400 mg/mL nafamostat mesylate. After review and evidence of safety, a second set of three subjects received a single dose of an oral solution of 600 mg/mL nafamostat mesylate. Blood samples were obtained for pharmacokinetic analysis at pre-dose (0 hr.) and at 0.25, 0.5, 0.75, 1, 1.5, 2, 2.5, 3, 4, 6, and 8 hours after receiving the nafamostat mesylate dose.
Evaluations of subjects included incidence and severity of adverse events (AEs), vital signs (pulse rate, blood pressure, respiratory rate), 12-lead electrocardiogram, electrocardiogram telemetry or MCOT cardiac patch, continuous pulse oximetry, clinical laboratory tests (CBC-diff, complete metabolic panel including LFTs, PT, PTT), physical examination.

hERG K+ channel = hERG K+ channel (Homo sapiens, UniProt Q12809); experiment: cell-based
Sequence of hERG K+ channel (Q12809 whole entry): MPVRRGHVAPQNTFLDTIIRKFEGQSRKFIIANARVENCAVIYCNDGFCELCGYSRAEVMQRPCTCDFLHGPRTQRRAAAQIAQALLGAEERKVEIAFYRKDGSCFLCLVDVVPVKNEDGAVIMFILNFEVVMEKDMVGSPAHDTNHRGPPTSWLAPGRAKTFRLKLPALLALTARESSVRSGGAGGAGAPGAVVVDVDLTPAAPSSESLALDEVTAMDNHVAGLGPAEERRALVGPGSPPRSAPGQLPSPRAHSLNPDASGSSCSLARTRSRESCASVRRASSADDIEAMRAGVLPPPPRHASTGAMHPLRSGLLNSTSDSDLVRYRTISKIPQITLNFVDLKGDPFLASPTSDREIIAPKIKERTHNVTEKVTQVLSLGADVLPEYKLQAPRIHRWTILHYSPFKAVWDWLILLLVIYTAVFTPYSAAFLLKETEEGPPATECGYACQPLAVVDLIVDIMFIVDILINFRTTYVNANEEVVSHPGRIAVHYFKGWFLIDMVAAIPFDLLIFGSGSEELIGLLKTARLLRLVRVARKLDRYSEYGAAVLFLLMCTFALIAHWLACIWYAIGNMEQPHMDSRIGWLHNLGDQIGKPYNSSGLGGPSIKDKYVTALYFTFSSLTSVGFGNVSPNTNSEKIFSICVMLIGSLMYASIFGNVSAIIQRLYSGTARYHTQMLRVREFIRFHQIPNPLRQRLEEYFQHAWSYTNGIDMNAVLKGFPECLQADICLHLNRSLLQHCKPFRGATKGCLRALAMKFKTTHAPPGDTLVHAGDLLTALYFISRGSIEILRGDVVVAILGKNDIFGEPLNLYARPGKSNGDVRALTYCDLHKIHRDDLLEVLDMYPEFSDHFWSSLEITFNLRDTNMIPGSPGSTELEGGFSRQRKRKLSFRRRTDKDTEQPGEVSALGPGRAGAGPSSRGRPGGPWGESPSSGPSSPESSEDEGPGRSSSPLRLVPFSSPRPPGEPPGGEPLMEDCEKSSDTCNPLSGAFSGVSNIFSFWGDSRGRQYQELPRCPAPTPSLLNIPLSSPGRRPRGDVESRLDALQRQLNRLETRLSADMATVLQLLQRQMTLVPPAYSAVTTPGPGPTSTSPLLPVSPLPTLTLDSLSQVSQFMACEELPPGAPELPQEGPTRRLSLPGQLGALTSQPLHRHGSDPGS
Procedure: Effects of nafamostat in an hERG assay: In an in vitro non-GLP screening study, effects of nafamostat on the hERG K^+ channel currents were evaluated in voltage-clamped human embryonic kidney cells at room temperature. […] A full ICH-Compliant hERG study and in vivo cardiovascular safety pharmacology study is be performed as part of the IND-enabling program.

[2] = Pharmacokinetics of oral nafamostat mesylate solution in healthy male and female subjects; format: in vivo, human
Procedure: as §1, with “Blood samples were obtained at pre-dose (0 hr.) and at 0.5, 1, 2, 3, 4, 6, 8, 12, and 24 hours after receiving the nafamostat mesylate oral solution.” left out
Part 2: Multiple Ascending Dose Study. Subjects were divided into 2 cohorts. Cohort 1 received an oral solution of 100 mg/mL nafamostat mesylate twice a day for 5 days with pharmacokinetic evaluations on each day. […] Safety evaluations continued for 48 hours after the last dose. After review and evidence of safety, Cohort 2 received an oral solution of 200 mg/mL nafamostat mesylate twice a day for 5 days with pharmacokinetic evaluations on each day. […] Safety evaluations continued for 48 hours after the last dose.
as §2, with “5. […]” for “5.”
Oral solutions received by each subject were prepared by dissolving nafamostat mesylate in about 100 mL of EMETROL®/water and provided at a volume to deliver the indicated dosage. There was no placebo formulation.
Nafamostat pharmacokinetics was evaluated at the 200 mg dose levels.

[3] = Pharmacokinetics of nafamostat in male rats (whole blood, LC/MS/MS); format: in vivo
Procedure: Example 1: Pharmacokinetic Studies. The pharmacokinetics of nafamostat were evaluated in male rats following an intravenous dose of 1 mg/kg or an oral dose of 9 mg/kg or 10 mg/kg. Nafamostat whole blood concentrations were determined by LC/MS/MS. Following intravenous dosing, nafamostat appeared in the blood of rats, with average (± SD) maximum whole blood concentrations (189 ± 54 ng/mL) being reached at the first measured time point (0.0830 hours) in all animals. […] The AUC0-t was 81.8 ± 29 ng̬·h/mL. The pharmacokinetic parameters were generated using a standard, non-compartmental model. Note that the half-life reported in this section is the terminal half-life and the alpha phase half-life is much shorter (estimated to be about 3 minutes).
After oral dosing, nafamostat appeared in the blood for the majority of the rats, with the whole blood concentrations being low and transient. The average (± SD) maximum plasma concentrations were 6.40 ± 6.2 ng/mL and 6.09 ± 3.6 ng/mL for the 9 mg/kg and 10 mg/kg doses, respectively, being reached between 0.250 hours and 0.500 hours. Due to the transient whole blood concentration-time profiles, the terminal t½ could not be calculated in the majority of the subjects but is approximated to be about 3 hours. The AUC0-t was 8.80 ng·h/mL (n=1) and 12.6 ± 11 ng·h/mL (n=3) for the two doses, respectively.

[4] = system: S. typhimurium strains TA98, TA100, TA1535, and TA97a and Escherichia coli strain WP2uvrA76; experiment: Bacterial Reverse Mutation (Ames) Screening Assay; format: cell-based; conditions: with or without S9, up to 25 mg/mL
Procedure: Bacterial Reverse Mutation (Ames) Screening Assay: This in vitro non-GLP study evaluated the cytotoxic and mutagenic activity of nafamostat in S. typhimurium strains TA98, TA100, TA1535, and TA97a and in the Escherichia coli (E. coli) strain WP2uvrA76. Two independent assays were conducted using the plate incorporation method with and without S9 metabolic activation. The highest concentration tested was 25 mg/mL. The vehicle control, sterile saline, was tested under the same conditions.

[5] = human, oral, 200 mg dose levels

## N=C(N)c1ccc2cc(OC(=O)c3ccc(N=C(N)N)cc3)ccc2c1 [nafamostat]
[1]; human subjects, oral solution
  adverse events attributable to nafamostat: no adverse events that could be attributed to nafamostat reported
[1]; oral, up to 600 mg nafamostat mesylate
  adverse events: no adverse events are observed
[1]; per subject (12-17), adverse event
  Drug-Related?: No
[1]; per subject (12-17), oral nafamostat mesylate solution
  Adverse Event: Intermittent headache; also recorded: Thrush; also recorded: Tonsillitis right; also recorded: Right thigh redness, swelling; also recorded: Nausea; also recorded: Orthostatic tachycardia* *; also recorded: Chest pain (mild, intermittent)
[1]; per subject (12-17), severity of adverse event
  Severity: Mild (4×) and Moderate (3×)
hERG K+ channel
  IC50: > 50 µM
[2]; [5]
  PK measurements (nafamostat concentration), all except three samples, below LLQ: < 0.1 ng/mL
  nafamostat found in the two outlier samples taken after at least one daily dose: 0.125 ng/mL and 0.101 ng/mL
[2]; oral administration
  nafamostat detected in blood samples: No nafamostat was detected in blood samples
[2]; subjects administered oral nafamostat
  therapeutically-relevant blood plasma levels: Therapeutically-relevant blood plasma levels were not observed
[3]; male rats, intravenous 1 mg/kg
  average (± SD) maximum whole blood concentration: 189 ± 54 ng/mL
  clearance: high and greater than hepatic blood flow in rats
  time of maximum whole blood concentration (first measured time point): 0.0830 h
[3]; male rats, oral 9 mg/kg
  average (± SD) maximum plasma concentration: 6.40 ± 6.2 ng/mL
[3]; male rats, oral 10 mg/kg
  average (± SD) maximum plasma concentration: 6.09 ± 3.6 ng/mL
[3]; male, rat, whole blood, iv, 1 mg/kg, male rats, intravenous 1 mg/kg, estimated, read-out: alpha phase half-life
  half-life: ~0.05 h
[3]; male, rat, whole blood, iv, 1 mg/kg, male rats, intravenous 1 mg/kg, non-compartmental, read-out: terminal t½ (converted)
  half-life: 1.84 ± 1.3 h
[3]; male, rat, whole blood, po, male rats, oral dosing, approximated, read-out: terminal t½ (converted)
  half-life: ~3 h
[3]; male, rat, whole blood, rats, oral vs intravenous, read-out: overall absolute oral bioavailability
  bioavailability: 1.16 ± 1.1%
[3]; rat, whole blood, male rats, intravenous 1 mg/kg
  AUC(0-t): 81.8 ± 29 ng·h/mL
[3]; rat, whole blood, male rats, oral 9 mg/kg (n=1)
  AUC(0-t): 8.8 ng·h/mL
[3]; rat, whole blood, male rats, oral 10 mg/kg (n=3)
  AUC(0-t): 12.6 ± 11 ng·h/mL
[4]; any test strain
  mutagenic activity (mean number of revertants per plate): no positive increases in the mean number of revertants
[4]; plate incorporation
  cytotoxic activity: not cytotoxic
